Laboratory results taken from patent US10183914B2 (BAYER CROPSCIENCE AKTIENGESELLSCHAFT, priority 2014, dated 2019).

Key:
Alopecurus myosuroides = experiment: Pre-emergence herbicidal effect; assay type: in vivo; details: 3 weeks
Excerpt: (§1) Seeds of monocotyledonous and dicotyledonous weed plants and crop plants are laid out in wood-fiber pots in sandy loam and covered with soil. The compounds of the invention, formulated in the form of wettable powders (WP) or as emulsion concentrates (EC), are then applied to the surface of the covering soil as aqueous suspension or emulsion at a water application rate equating to 600 to 800 L/ha with addition of 0.2% wetting agent.
(§2) After the treatment, the pots are placed in a greenhouse and kept under good growth conditions for the trial plants. The damage to the trial plants is scored visually after a trial duration of 3 weeks by comparison with untreated controls (herbicidal activity in percent (%): 100% efficacy=the plants have died, 0% efficacy=like control plants).

Amaranthus retroflexus = experiment: Pre-emergence herbicidal effect; assay type: in vivo; details: 3 weeks
Excerpt: as §1, §2

Veronica persica = experiment: Pre-emergence herbicidal effect; assay type: in vivo; details: 3 weeks
Excerpt: as §1, §2

Viola tricolor = experiment: Pre-emergence herbicidal effect; assay type: in vivo; details: 3 weeks
Excerpt: as §1, §2

Setaria viridis = experiment: Pre-emergence herbicidal effect; assay type: in vivo; details: 320 g/ha, 3 weeks
Excerpt: as §1, §2

Matricaria inodora = experiment: Pre-emergence herbicidal effect; assay type: in vivo; details: 3 weeks
Excerpt: as §1, §2

Echinochloa crus-galli = experiment: Pre-emergence herbicidal effect; assay type: in vivo; details: 320 g/ha, 3 weeks
Excerpt: as §1, §2

Zea mays [1] = experiment: Pre-emergence herbicidal effect and crop plant compatibility; assay type: in vivo; details: 3 weeks
Excerpt: as §1, §2

[2] = system: Triticum aestivum (spring); experiment: as above; assay type: in vivo; details: 3 weeks
Excerpt: as §1, §2

Stellaria media = experiment: Pre-emergence herbicidal effect; assay type: in vivo; details: 3 weeks
Excerpt: as §1, §2

Oryza sativa [3] = experiment: Pre-emergence herbicidal effect and crop plant compatibility; assay type: in vivo; details: 3 weeks
Excerpt: as §1, §2

Oryza sativa [4] = experiment: Post-emergence herbicidal effect and crop plant compatibility; assay type: in vivo; details: visual scoring after about 3 weeks
Protocol: (§3) Seeds of monocotyledonous and dicotyledonous weed and crop plants are laid out in sandy loam in wood-fiber pots, covered with soil and cultivated in a greenhouse under good growth conditions. 2 to 3 weeks after sowing, the test plants are treated at the one-leaf stage. The compounds of the invention, formulated in the form of wettable powders (WP) or as emulsion concentrates (EC), are then sprayed onto the green parts of the plants as aqueous suspension or emulsion at a water application rate equating to 600 to 800 L/ha with addition of 0.2% wetting agent. After the trial plants have been left to stand in a greenhouse under optimal growth conditions for about 3 weeks, the efficacy of the formulations is scored visually in comparison to untreated controls (herbicidal action in percent (%): 100% efficacy=the plants have died, 0% efficacy=like control plants).

Zea mays [5] = experiment: as above; assay type: in vivo; details: visual scoring after about 3 weeks
Protocol: as §3

[6] = system: Triticum aestivum (spring); experiment: as above; assay type: in vivo; details: visual scoring after about 3 weeks
Protocol: as §3

[7] = logp (HCOOH), physicochemical characterization
Lolium multiflorum = experiment: Pre-emergence herbicidal effect; assay type: in vivo; details: 320 g/ha, 3 weeks
Excerpt: as §1, §2

Polygonum convolvulus = experiment: Pre-emergence herbicidal effect; assay type: in vivo; details: 320 g/ha, 3 weeks
Excerpt: as §1, §2

Structure (SMILES) | AMARE herbicidal activity in percent (Amaranthus retroflexus; 80 g/ha) [%] | AMARE herbicidal activity in percent (Amaranthus retroflexus; 320 g/ha) [%] | VERPE herbicidal activity in percent (Veronica persica; 320 g/ha) [%] | VIOTR herbicidal activity in percent (Viola tricolor; 320 g/ha) [%] | SETVI herbicidal activity in percent (Setaria viridis) [%] | MATIN herbicidal activity in percent (Matricaria inodora; 320 g/ha) [%] | ECHCG herbicidal activity in percent (Echinochloa crus-galli) [%] | ZEAMX herbicidal activity in percent (Zea mays [1]; 80 g/ha) [%] | ZEAMX herbicidal activity in percent (Zea mays [1]; 320 g/ha) [%] | TRZAS herbicidal activity in percent ([2]; 80 g/ha) [%] | TRZAS herbicidal activity in percent ([2]; 320 g/ha) [%] | VERPE herbicidal activity in percent (Veronica persica; 80 g/ha) [%] | STEME herbicidal activity in percent (Stellaria media; 320 g/ha) [%] | ORYSA herbicidal activity in percent (Oryza sativa [3]; 80 g/ha) [%] | post-emergence efficacy ORYSA (Oryza sativa [4]; 80 g/ha) [%] | post-emergence efficacy ORYSA (Oryza sativa [4]; 320 g/ha) [%] | post-emergence efficacy ZEAMX (Zea mays [5]; 80 g/ha) [%] | post-emergence efficacy ZEAMX (Zea mays [5]; 320 g/ha) [%] | post-emergence efficacy TRZAS ([6]; 80 g/ha) [%] | post-emergence efficacy TRZAS ([6]; 320 g/ha) [%] | also measured
CC(=O)c1cnc(NC2CCOc3c(C)cccc32)nc1 (racemic) [1.8] | 100 | 100 | 100 | 100 | 80 | 100 | 90 | 0 | 0 | 0 | 0 | – | – | – | – | – | – | – | – | – | ALOMY herbicidal activity in percent (Alopecurus myosuroides; 80 g/ha): 0%; ALOMY herbicidal activity in percent (Alopecurus myosuroides; 320 g/ha): 0%
CC(=O)c1cnc(N[C@@H]2CCCc3cc(F)ccc32)nc1C [1.88] | 80 | 100 | 100 | 90 | – | 100 | – | 0 | 0 | 0 | 0 | 100 | 100 | 0 | 0 | 0 | 0 | 10 | 0 | 20 | MATIN herbicidal activity in percent (Matricaria inodora; 80 g/ha): 100%
O=C1CC(c2ccc(F)cc2)Cc2nc(N[C@@H]3CCCc4ccccc43)ncc21 (stereo partly shown) [2.92] | 80 | 100 | 100 | 100 | 100 | 90 | 100 | 0 | 20 | 0 | 20 | 100 | 100 | 0 | 0 | 0 | 0 | 0 | 0 | 10 | logp (HCOOH) [7]: oily; logp (HCOOH): 4.05; 1H-NMR (CDCl3, 400 MHZ, δ in ppm): 1.95 (m, 3H, 2H; VIOTR herbicidal activity in percent (Viola tricolor; 80 g/ha): 90%; STEME herbicidal activity in percent (Stellaria media; 80 g/ha): 100%; ORYSA herbicidal activity in percent (Oryza sativa [3]; 320 g/ha): 20%
Cc1ccc2c(c1)[C@H](Nc1ncc3c(n1)CC(C(C)C)CC3=O)[C@@H](C)C2 (stereo partly shown) [2.104] | – | 100 | 100 | 100 | 100 | 100 | – | 0 | 0 | 0 | – | 100 | 100 | 20 | 0 | 0 | 0 | 0 | 0 | 0 | LOLMU herbicidal activity in percent (Lolium multiflorum): 90%; VIOTR herbicidal activity in percent (Viola tricolor; 80 g/ha): 90%; MATIN herbicidal activity in percent (Matricaria inodora; 80 g/ha): 80%; STEME herbicidal activity in percent (Stellaria media; 80 g/ha): 100%; POLCO herbicidal activity in percent (Polygonum convolvulus): 100%; ORYSA herbicidal activity in percent (Oryza sativa [3]; 320 g/ha): 20%
